In article PMC4774972, “Activity and Predicted Nephrotoxicity of Synthetic Antibiotics Based on Polymyxin B” (Journal of Medicinal Chemistry, 2016):
Converted amounts (≈) assume the structure as drawn. Numbered stars: 1 amine (or outer) side, 2 acyl side, 3 side chain; on linkers, the order of the positions; unused ones are H or OH. Bridge positions count the residues as written; N and C are the ends. Square brackets hold non-standard residues; d marks the D form. Peptide text beside a SMILES is read from it. * marks the point of attachment. Octanoyl(6-Me) = CCC(C)CCCCC(=O)*; NH(2-ClPh) = Clc1ccccc1N*; dDab = NCC[C@@H](N)C(=O)O; Dab = NCC[C@H](N)C(=O)O; CO = O=C([*:1])[*:2]

What was measured:
[1] = test system: P. aeruginosa FADDI-PA070, PmxR; settings: MIC P. aeruginosa FADDI-PA070, PmxR (µg/mL)
[2] = test system: P. aeruginosa PA9704, PmxR; settings: MIC P. aeruginosa PA9704, PmxR (µg/mL)
[3] = test system: K. pneumoniae CI Koprana 100650661:1, PmxR; settings: MIC K. pneumoniae CI Koprana 100650661:1, PmxR (µg/mL)
[4] = test system: A. baumannii CI Ptyela 100734512:2, PmxR; settings: MIC A. baumannii CI Ptyela 100734512:2, PmxR (µg/mL)
[5] = test system: S. aureus ATCC 25923, MSSA; settings: MIC S. aureus ATCC 25923, MSSA (µg/mL)
[6] = test system: K. pneumoniae CI 138-16357-20362, PmxR; settings: MIC K. pneumoniae CI 138-16357-20362, PmxR (µg/mL)
HepG2 cells = experiment: Cytotoxicity assay (resazurin assay); format: cell-based, human; settings: 4000 cells/well, 24 h incubation with compound, fluorescence 560/590
Method: Cytotoxicity to HEK293 and HepG2 cells was determined using the resazurin assay.[67],[68] […] Compounds were then added into each well. After 24 h incubation, 5 μM resazurin was added per well and incubated at 37 °C for 2 h. Fluorescence intensity was then read using a Polarstar Omega with excitation/emission 560/590. The data were then analyzed using GraphPad Prism 6 software. CC50 values were determined using GraphPad Prism 6 software (Inc. La Jolla, CA).

[7] = test system: A. baumannii CI Ptyela 100734512:2, PmxR; experiment: microbe, parasite or virus in culture; format: cell-based, Acinetobacter baumannii; settings: carbapenem & polymyxin resistant clinical isolate; MHB, 5 × 10^5 CFU/mL, 18 h at 37 °C
Method: (§1) Bacteria were either obtained from American Type Culture Collection (ATCC; Manassas, VA, USA) or independent academic clinical isolate collections, as listed in Table S2. Bacteria were cultured in nutrient broth (NB; Bacto Laboratories, catalog no. 234000) or Muller Hinton broth (MHB; Bacto Laboratories, catalog no. 211443) at 37 °C overnight with shaking (∼180 rpm). A sample of each culture was then diluted 50-fold in fresh MHB and incubated at 37 °C for 1.5–3 h with shaking (∼180 rpm). Compound stock solutions were prepared as 0.64 or 2.56 mg/mL in water. The compounds, at twice the final desired concentration, were serially diluted 2-fold across the wells of 96-well plates (Polystyrene, Corning, catalogue No. 3370). Mid log phase bacterial cultures (after 1.5–3 h incubation) were diluted to a final concentration of 5 × 10^5 colony forming units (CFU)/mL, and 50 μL was added to each well giving a final compound concentration range of 32 μg/mL to 0.015 μg/mL (128–0.06 μg/mL for colistin and polymyxin B against the polymyxin resistant clinical isolates). MICs were determined visually after 18 h of incubation at 37 °C, with the MIC defined as the lowest compound concentration at which no bacterial growth was visible.
(§2) Table S2. Bacterial strains used for Minimum Inhibitory Concentration (MIC) […]
(§3) Organism Strain Strain description Strain Source
(§4) Escherichia coli ATCC 25922 FDA strain Seattle 1946 ATCC
(§5) Klebsiella pneumoniae ATCC 13883 Control strain ATCC
(§6) Klebsiella pneumoniae ATCC 700603 Multi-drug resistant ATCC
(§7) Klebsiella pneumoniae BAA-2146 Metallo-beta-lactamase- ATCC
(§8) Acinetobacter baumannii ATCC 19606 Type strain ATCC
(§9) Pseudomonas aeruginosa ATCC 27853 Type strain ATCC
(§10) Pseudomonas aeruginosa FADDI-PA070 Clinical isolate, Nation and Li labs, polymyxin resistant Monash University
(§11) Clinical isolate, Wang Hengzhuang, Pseudomonas aeruginosa PA9704 polymyxin resistant University Hospital of […]
(§12) Ptyela Clinical isolate, Ilias Karaiskos and Acinetobacter baumannii Carbapenem & Helen Giamarellou
(§13) Clinical isolate, Medicine, Hygeia
(§14) Klebsiella pneumoniae Koprana Carbapenem, & General Hospital, […]
(§15) Clinical isolate, (Instituto Dante […]
(§16) polymyxin resistant Cardiologia, São […]

[8] = test system: S. aureus ATCC 25923, MSSA; experiment: microbe, parasite or virus in culture; format: cell-based, Staphylococcus aureus; settings: MHB, 5 × 10^5 CFU/mL, read visually after 18 h at 37 °C
Method: as §1, §2, §3, §4, §5, §6, §7, §8, §9, §10, §11, §12, §13, §14, §15, §16

HepG2 = settings: CC50 HepG2 (µM)
[9] = test system: P. aeruginosa PA9704, PmxR; format: cell-based, Pseudomonas aeruginosa; settings: polymyxin resistant clinical isolate; MHB, 5 × 10^5 CFU/mL, 18 h at 37 °C
Method: as §1, §2, §3, §4, §5, §6, §7, §8, §9, §10, §11, §12, §13, §14, §15, §16

[10] = test system: K. pneumoniae CI Koprana 100650661:1, PmxR; experiment: microbe, parasite or virus in culture; format: cell-based, Klebsiella pneumoniae; settings: carbapenem & polymyxin resistant clinical isolate; MHB, 5 × 10^5 CFU/mL, 18 h at 37 °C
Method: as §1, §2, §3, §4, §5, §6, §7, §8, §9, §10, §11, §12, §13, §14, §15, §16

[11] = test system: K. pneumoniae CI 138-16357-20362, PmxR; experiment: microbe, parasite or virus in culture; format: cell-based, Klebsiella pneumoniae; settings: carbapenem & polymyxin resistant clinical isolate; MHB, 5 × 10^5 CFU/mL, 18 h at 37 °C
Method: as §1, §2, §3, §4, §5, §6, §7, §8, §9, §10, §11, §12, §13, §14, §15, §16

P. aeruginosa ATCC 27853 = settings: MIC P. aeruginosa ATCC 27853 (µg/mL)
A. baumannii ATCC 19606 = settings: MIC A. baumannii ATCC 19606 (µg/mL)
E. coli ATCC 25922 = settings: MIC E. coli ATCC 25922 (µg/mL)
[12] = test system: K. pneumoniae ATTC BAA-2146, NDM-1 pos; settings: MIC K. pneumoniae ATTC BAA-2146, NDM-1 pos (µg/mL)
[13] = test system: K. pneumoniae ATCC 700603, MDR; settings: MIC K. pneumoniae ATCC 700603, MDR(µg/mL)
K. pneumoniae ATCC 13883 = settings: MIC K. pneumoniae ATCC 13883 (µg/mL)

Compound CC(C)C[C@@H]1NC(=O)[C@@H](Cc2ccccc2)NC(=O)[C@H](CCN)NC(=O)[C@@H](NC(=O)[C@H](CCN)NC(=O)[C@@H](NC(=O)[C@H](CCN)NC(=O)Nc2ccccc2Cl)[C@@H](C)O)CCNC(=O)[C@H]([C@@H](C)O)NC(=O)[C@H](CCN)NC(=O)[C@H](CCN)NC1=O [Compound 13] ({NH(2-ClPh)-CO}-[Dab]T[Dab][Dab][Dab][dF]L[Dab][Dab]T; lactam 4-C) has an MIC [1] of over 32 µg/mL, an MIC [2] of over 32 µg/mL and an MIC [3] of over 32 µg/mL. The MIC [4] was over 32 µg/mL, the MIC [5] was over 32 µg/mL and the MIC [6] was over 32 µg/mL. For the same compound, the “HepG2 - CC50” value (HepG2 cells) was over 300 µM, the “MIC A. baumannii CI Ptyela 100734512:2, PmxR” value [7] was over 32 µg/mL and the “MIC S. aureus ATCC 25923, MSSA” value [8] was over 32 µg/mL. The CC50 (HepG2) was over 300 µM, the “MIC P. aeruginosa PA9704, PmxR” value [9] was over 32 µg/mL and the “MIC K. pneumoniae CI Koprana 100650661:1, PmxR” value [10] was over 32 µg/mL. The “MIC K. pneumoniae CI 138-16357-20362, PmxR” value [11] was over 32 µg/mL.

Work on CCC(C)CCCCC(=O)N[C@@H](CCN)C(=O)N[C@H](C(=O)N[C@@H](CCN)C(=O)N[C@H]1CCNC(=O)[C@H]([C@@H](C)O)NC(=O)[C@H](CCN)NC(=O)[C@H](CCN)NC(=O)[C@H](CC(C)C)NC(=O)[C@@H](Cc2ccccc2)NC(=O)[C@H](CCN)NC1=O)[C@@H](C)O (stereo partly drawn) yielded an MIC [1] of 32 µg/mL (≈ 26.6 µM), an MIC [2] of 128 µg/mL (≈ 106 µM) and an MIC [3] of 64 µg/mL (≈ 53.2 µM). It also gave an MIC [4] of 64 µg/mL (≈ 53.2 µM), an MIC (P. aeruginosa ATCC 27853) of 0.5 µg/mL (≈ 0.415 µM) and an MIC (A. baumannii ATCC 19606) of 0.25 µg/mL (≈ 0.208 µM). The MIC [5] was over 64 µg/mL, the MIC [6] was 64 µg/mL (≈ 53.2 µM) and the MIC (E. coli ATCC 25922) was 1 µg/mL (≈ 0.831 µM). The MIC [12] was 0.25 µg/mL (≈ 0.208 µM), the MIC [13] was 0.5 µg/mL (≈ 0.415 µM) and the MIC (K. pneumoniae ATCC 13883) was 1 µg/mL (≈ 0.831 µM). For the same compound, the CC50 (HepG2) was over 300 µM.

CC(C)C[C@@H]1NC(=O)[C@@H](Cc2ccccc2)NC(=O)[C@H](CCN)NC(=O)[C@@H](NC(=O)[C@@H](CCN)NC(=O)[C@@H](NC(=O)[C@H](CCN)NC(=O)Nc2ccccc2Cl)[C@@H](C)O)CCNC(=O)[C@H]([C@@H](C)O)NC(=O)[C@H](CCN)NC(=O)[C@H](CCN)NC1=O [Compound 16] ({NH(2-ClPh)-CO}-[Dab]T[dDab][Dab][Dab][dF]L[Dab][Dab]T; lactam 4-C) showed an MIC [2] of over 32 µg/mL, an MIC [3] of over 32 µg/mL and an MIC [4] of over 32 µg/mL. The MIC [5] was over 32 µg/mL, the MIC [6] was over 32 µg/mL and the “HepG2 - CC50” value (HepG2 cells) was over 300 µM. For the same compound, the “MIC A. baumannii CI Ptyela 100734512:2, PmxR” value [7] was over 32 µg/mL, the “MIC S. aureus ATCC 25923, MSSA” value [8] was over 32 µg/mL and the CC50 (HepG2) was over 300 µM. The “MIC P. aeruginosa PA9704, PmxR” value [9] was over 32 µg/mL, the “MIC K. pneumoniae CI Koprana 100650661:1, PmxR” value [10] was over 32 µg/mL and the “MIC K. pneumoniae CI 138-16357-20362, PmxR” value [11] was over 32 µg/mL.

CCC(C)CCCCC(=O)N[C@@H](CCN)C(=O)N[C@H](C(=O)N[C@@H](CCN)C(=O)N[C@H]1CCNC(=O)[C@H]([C@@H](C)O)NC(=O)[C@H](CCN)NC(=O)[C@H](CCN)NC(=O)[C@H](CC(C)C)NC(=O)[C@@H](CC(C)C)NC(=O)[C@H](CCN)NC1=O)[C@@H](C)O (stereo partly drawn) ({Octanoyl(6-Me)}-[Dab]T[Dab][Dab][Dab][dL]L[Dab][Dab]T; lactam 4-C) gave an MIC [1] of over 32 µg/mL, an MIC [2] of 128 µg/mL (≈ 109 µM) and an MIC [3] of over 128 µg/mL. The MIC [4] was over 64 µg/mL, the MIC (P. aeruginosa ATCC 27853) was 0.5 µg/mL (≈ 0.428 µM) and the MIC (A. baumannii ATCC 19606) was 0.25 µg/mL (≈ 0.214 µM). The MIC [5] was over 128 µg/mL, the MIC [6] was 64 µg/mL (≈ 54.7 µM) and the MIC (E. coli ATCC 25922) was 0.25 µg/mL (≈ 0.214 µM). It also gave an MIC [12] of 0.25 µg/mL (≈ 0.214 µM), an MIC [13] of 0.25 µg/mL (≈ 0.214 µM) and an MIC (K. pneumoniae ATCC 13883) of 0.25 µg/mL (≈ 0.214 µM). The CC50 (HepG2) was over 300 µM.
